Reference: patent publication US20240390357A1, “PYRIDINES AND THEIR USE IN TREATMENT OF GBA-RELATED DISEASES” (ZEVRA DENMARK A/S, priority 2021, published 2024)
Marks after values point to notes of the source that are not given here.

Biological target: T1, GBA (glucosylceramidase, GCase), L444P GBA mutation (Homo sapiens, UniProt P04062, L483P)
T1 construct: Human fibroblast cell line GM10915 harboring the L444P GBA mutation was obtained from Coriell Biorepositories; host or cells: GM10915 human fibroblasts
T1 sequence (P04062 40-536 L483P): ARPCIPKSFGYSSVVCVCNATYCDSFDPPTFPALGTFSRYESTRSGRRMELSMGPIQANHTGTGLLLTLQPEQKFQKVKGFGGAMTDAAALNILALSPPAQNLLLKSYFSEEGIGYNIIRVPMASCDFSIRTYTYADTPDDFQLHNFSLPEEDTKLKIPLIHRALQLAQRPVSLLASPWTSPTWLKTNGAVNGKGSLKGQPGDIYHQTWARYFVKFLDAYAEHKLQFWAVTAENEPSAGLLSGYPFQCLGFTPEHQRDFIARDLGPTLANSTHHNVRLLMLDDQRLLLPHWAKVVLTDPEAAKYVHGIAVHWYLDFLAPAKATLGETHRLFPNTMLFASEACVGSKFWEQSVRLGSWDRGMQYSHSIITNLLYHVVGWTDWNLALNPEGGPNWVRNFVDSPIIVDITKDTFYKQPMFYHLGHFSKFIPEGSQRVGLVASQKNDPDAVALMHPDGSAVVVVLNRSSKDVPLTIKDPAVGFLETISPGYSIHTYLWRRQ
Assay: GCase activity assay (4-MUG) in GM10915 fibroblasts, normalised to crystal violet staining
Assay type: cell-based
Conditions: five days exposure; for GBA EC1.5: concentration where Percent GCase activity = 150% (1.5-fold induction), human fibroblast cell line GM10915 (L444P GBA), 8-point dose range; for Emax / GBA Emax: maximum Percent GCase activity in the dose range tested, relative to basal activity of untreated cells, GM10915 (L444P GBA)
Description: Human fibroblast cell line GM10915 harboring the L444P GBA mutation was obtained from Coriell Biorepositories.
The GM10915 cell line was cultured under standard cell culture conditions (37° C. and 5% CO2) in complete DMEM medium supplemented with nonessential amino acids (NEAA), 1% Pen-Strep and 12% FCS. Cells were seeded at a density of 10^4 cells/well in 100 μL complete medium in one black 96-well plate for glucosylceramidase (GCase) activity measurement and in one clear 96-well plate for crystal violet staining to correct for cell density. Crystal violet staining is performed to obtain quantitative information about the relative density of cells adhering to multi-wells plates.
The assay was adapted from Sawkar et al (2002) and briefly described in the following. The day after seeding of cells, the medium was replaced with fresh medium containing the compounds to be tested. Compounds were tested in duplicate and in an 8-point diluted dose range to obtain a dose response. Cells were exposed with compounds for five days. Fresh compound was added every 2-3 days. PBS was included to define the basal level of GCase activity.
Cells were washed three times with 200 μL PBS per well and 50 μL of 2.5 mM 4-MUG buffer (4-MUG dissolved in 0.2 M acetate buffer pH 4.0) was added and the cells were incubated at 37° C., 5% CO2 for 23 hours. The reaction was stopped by adding 150 μL 0.2 M glycine buffer (pH 10.8). Fluorescence was measured with a Varioskan® Flash reader (Thermo Scientific) at an excitation/emission setting of 365/445 nm.
Cells were treated with compounds in a parallel setup identical to the setup to test for GCase activity. At the end of compound treatment, cells were washed once with 200 μL PBS per well and 50 μL 0.1% w/v crystal violet (in H20) was added. Following 10 min. of incubation, the crystal violet solution was removed, and the cells were washed three times with 200 μL PBS and 100 μL 1% SDS was added to solubilize the stain.
The plate was agitated on an orbital shaker for 10-30 min. Absorbance (A) is measured at […] using a Varioskan® Flash reader (Thermo Scientific).
The fluorescence signal (F) derived from the GCase measurement is normalized to the absorbance signal (A) derived from the crystal violet staining. The percent GCase activity resulting from compound treatment is calculated relative to the basal activity obtained from untreated cells.
Maximal effect of compounds (E max) is determined from the dose response effects as the maximum “Percent GCase activity” achieved in the dose range tested.

SMILES | GBA EC1.5 | Emax | GBA Emax
Fc1cc(C2CCNCC2)cnc1CN1CCCCC1 [compound 880] | 4.3 µM | 237% | –
Cn1nc(C2CCCNC2)cc1CN1CCCCC1 (stereo not shown) [compound 708] | 16 µM | 205% | –
Cc1cc(CN2CCCCC2)cnc1C1CCN(C)CC1 [compound 777] | 6.9 µM | 200% | –
c1cc(CN2CCCCC2)ncc1C1CCNCC1 [compound 775] | 24.5 µM | 186% | –
CN1CCCC(c2cncc(CN3CCCCC3)c2)C1 (stereo not shown) [compound 736] | 3.7 µM | 216% | –
Cc1cc(C2CCCNC2)nc(CN2CCCCC2)n1 (stereo not shown) [compound 730] | 5.0 µM | – | 234%
c1cn(C2CCNCC2)nc1CN1CCCCC1 [compound 624] | 21 µM | 189% | –
c1cc(C2CCNCC2)ncc1CN1CCCCC1 [compound 759] | 6.6 µM | 200% | –
c1cc(CN2CCCCC2)nc(C2CCNCC2)n1 [compound 638] | 4.1 µM | 263% | –
Cc1cc(CN2CCCCC2)cc(C2CCN(C)CC2)n1 [compound 795] | 7.0 µM | 185% | –
C1=C(c2ccc(CN3CCCCC3)cn2)CNC1 [compound 666] | 9.2 µM | 253% | –
c1cc(CN2CCCCC2)cc(C2CCNCC2)n1 [compound 540] | 5.4 µM | 177% | –
Cc1cc(CN2CCCCC2)nc(C2CCCNC2)c1 (stereo not shown) [compound 732] | 3.2 µM | 200% | –
c1nc(C2CCCNC2)cnc1CN1CCCCC1 (stereo not shown) [compound 754] | 11.8 µM | 180% | –
COc1ncc(C2CCNCC2)cc1CN1CCCCC1 [compound 715] | 24.8 µM | 160% | –
c1cc(C2CCNCC2)nnc1CN1CCCCC1 [compound 855] | 43.3 µM | 163% | –
CN1CCC(c2cc(CN3CCCCC3)ncn2)CC1 [compound 784] | 6.5 µM | 155% | –
COc1ncc(C2CCN(C)C2)cc1CN1CCCCC1 (stereo not shown) [compound 812] | 6.7 µM | 255% | –
c1ncc(C2CCNC2)cc1CN1CCCCC1 (stereo not shown) [compound 769] | 18.9 µM | 205% | –
c1nc(C2CCNCC2)cnc1CN1CCCCC1 [compound 753] | 19.1 µM | 190% | –

SMILES | GBA EC1.5 | Emax | GBA Emax
Cc1cc(C2CCCNC2)nc(CN2CCCCC2)n1 (stereo not shown) [compound 737] | 21.5 µM | – | 203%
CC(c1cncc(C2CCCNC2)c1)N1CCCCC1 (stereo not shown) [compound 761] | 5.2 µM | 205% | –
c1nc(C2CCNCC2)sc1CN1CCCCC1 [compound 620] | 3.5 µM | 236% | –
CN1CCCC(c2ccc(CN3CCCCC3)cn2)C1 (stereo not shown) [compound 810] | 4.9 µM | 199% | –
CN1CCC(c2cnc(CN3CCCCC3)cn2)CC1 [compound 774] | 9.7 µM | 198% | –
CN1CCCC(c2ccc(CN3CCCCC3)nc2)C1 (stereo not shown) [compound 776] | 4.3 µM | 200% | –
Cc1ccc(CN2CCCCC2)nc1C1CCN(C)CC1 [compound 801] | 3.9 µM | 173% | –
CN1CCCC(c2cccc(CN3CCCCC3)n2)C1 (stereo not shown) [compound 796] | 2.6 µM | 267% | –
Cc1cc(CN2CCCCC2)cnc1C1CCNCC1 [compound 760] | 4.3 µM | 211% | –
CN1CCC(c2cccc(CN3CCCCC3)n2)CC1 [compound 794] | 3.0 µM | 269% | –
C1CCN(Cc2noc(C3CCCNC3)n2)CC1 (stereo not shown) [compound 614] | 46 µM | 169% | –
CN1CCC(c2cccc(CN3CCCCC3)n2)C1 (stereo not shown) [compound 798] | 2.5 µM | 250% | –
COc1ncc(C2CCNC2)cc1CN1CCCCC1 (stereo not shown) [compound 803] | 6.0 µM | 203% | –
c1cc2c(CN3CCCCC3)c[nH]c2nc1C1CCCNC1 (stereo not shown) [compound 833] | 12.1 µM | 203% | –
c1cn2cc(CN3CCCCC3)nc2cc1C1CCNCC1 [compound 854] | 9.4 µM | 194% | –
Nc1c(Br)cc(Br)cc1CN[C@H]1CC[C@H](O)CC1 [Ambroxol, reference compound] | >20* *The 1.5-fold induction criteria was not reached within the tested concentration range μM | – | –
c1nc2cnc(C3CCNCC3)cn2c1CN1CCCCC1 [compound 841] | 35.9 µM | 181% | –
c1nc2cc(CN3CCCCC3)oc2cc1C1CCNCC1 [compound 868] | 6.5 µM | 204% | –
c1cc(CN2CCCCC2)ncc1C1CCNC1 (stereo not shown) [compound 808] | 28.6 µM | 175% | –
Fc1c(CN2CCCCC2)ccnc1C1CCNCC1 [compound 846] | 2.8 µM | 245% | –

SMILES | GBA EC1.5 | Emax | GBA Emax
c1cc(C2CCCNC2)ncc1CN1CCCCC1 (stereo not shown) [compound 811] | 3.4 µM | 263% | –
c1nc(CN2CCCCC2)cc(C2CCNC2)n1 (stereo not shown) [compound 832] | 18.0 µM | 175% | –
c1c(C2CCNC2)noc1CN1CCCCC1 (stereo not shown) [compound 654] | 4.9 µM | 381% | –
c1cc(CN2CCCCC2)nc(C2CCNCC2)c1 [compound 788] | 8.0 µM | 278% | –
CC(c1cncc(C2CCNCC2)c1)N1CCCCC1 (stereo not shown) [compound 772] | 18.5 µM | 211% | –
c1cc2ncc(CN3CCCCC3)n2cc1C1CCNCC1 [compound 853] | 8.0 µM | 193% | –
CN1CCCC(c2cc(CN3CCCCC3)ncn2)C1 (stereo not shown) [compound 802] | 8.8 µM | 256% | –
c1c(C2CCNCC2)noc1CN1CCCCC1 [compound 586] | 7.5 µM | 234% | –
COc1ncc(C2CCCNC2)cc1CN1CCCCC1 (stereo not shown) [compound 729] | 2.7 µM | 223% | –
c1cc(CN2CCCCC2)ncc1C1CCCNC1 (stereo not shown) [compound 757] | 4.2 µM | 214% | –
Cc1ccc(CN2CCCCC2)nc1C1CCNCC1 [compound 778] | 7.4 µM | 152% | –
CCCCCO[C@H]1CC[C@H](NC(=O)c2cnn3c(C)cc(C)nc23)CC1 [LTI-291, reference compound] | 112 µM | – | –
c1cc(CN2CCCCC2)nc(C2CCNC2)c1 (stereo not shown) [compound 793] | 29.2 µM | 165% | –
Cc1cc(C2CCCN(C)C2)nc(CN2CCCCC2)n1 (stereo not shown) [compound 738] | 5.4 µM | 248% | –
Cc1cc(CN2CCCCC2)cnc1C1CCCNC1 (stereo not shown) [compound 758] | 3.1 µM | 233% | –
COc1ncc(C2CCN(C)CC2)cc1CN1CCCCC1 [compound 735] | 2.3 µM | 212% | –
CN1CCCC(c2cnc(CN3CCCCC3)cn2)C1 (stereo not shown) [compound 773] | 3.9 µM | 236% | –
Cc1cc(CN2CCCCC2)cc(C2CCNCC2)n1 [compound 764] | 3.3 µM | 227% | –
Cc1cc(C2CCNCC2)nc(CN2CCCCC2)n1 [compound 739] | 30.8 µM | 176% | –
c1cc(CN2CCCCC2)nc(C2CCCNC2)c1 (stereo not shown) [compound 791] | 4.4 µM | 165% | –
